This note sets out measurements from ChEMBL document CHEMBL5236590, “Discovery of Novel N-(5-(Pyridin-3-yl)-1H-indazol-3-yl)benzamide Derivatives as Potent Cyclin-Dependent Kinase 7 Inhibitors for the Treatment of Autosomal Dominant Polycystic Kidney Disease” (J Med Chem, 2022).

In assay [1] the target is T1, Cyclin-dependent kinase 7 (Homo sapiens, UniProt P50613). As to the kind of experiment: Inhibition of CDK7 (unknown origin) assessed as phosphorylation of ULight 4EBP1 peptide substrate measured after 2 hrs by FRET-based LANCE Ultra KinSelect assay.
In assay [2] the target is T2, Cyclin-dependent kinase 2 (Homo sapiens, UniProt P24941). As to the kind of experiment: Inhibition of CDK2 (unknown origin) assessed as phosphorylation of ULight 4EBP1 peptide substrate measured after 2 hrs by FRET-based LANCE Ultra KinSelect assay. In general terms: Time-resolved FRET reads energy transfer from a long-lived donor to a nearby acceptor.
For assay [3], the target named is T2, Cyclin-dependent kinase 2. Briefly: Inhibition of CDK2 (unknown origin) assessed as phosphorylation of ULight 4EBP1 peptide substrate at 10 uM measured after 2 hrs by FRET-based LANCE Ultra KinSelect assay.
For assay [4], the target named is T1, Cyclin-dependent kinase 7. As to the kind of experiment: Inhibition of CDK7 (unknown origin) assessed as phosphorylation of ULight 4EBP1 peptide substrate at 10 uM measured after 2 hrs by FRET-based LANCE Ultra KinSelect assay relative to control.
The next assay deals with THP-1. Briefly: Cytotoxicity against human THP-1 cells assessed as cell viability measured after 24 hrs by CCK-8 assay. In kind it is functional, cell-based. The note with it: THP-1, 24 h.

T1 sequence (P50613 whole entry): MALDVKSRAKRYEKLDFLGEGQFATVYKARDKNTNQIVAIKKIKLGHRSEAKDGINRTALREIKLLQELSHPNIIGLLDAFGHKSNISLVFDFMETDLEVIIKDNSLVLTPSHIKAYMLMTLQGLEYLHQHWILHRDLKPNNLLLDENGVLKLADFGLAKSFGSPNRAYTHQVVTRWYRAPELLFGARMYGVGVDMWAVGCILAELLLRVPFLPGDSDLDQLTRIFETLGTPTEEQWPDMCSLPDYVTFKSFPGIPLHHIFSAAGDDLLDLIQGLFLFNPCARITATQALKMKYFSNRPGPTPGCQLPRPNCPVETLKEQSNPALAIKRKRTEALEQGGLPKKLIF

In the case of `C=CC(=O)Nc1ccc(C(=O)Nc2n[nH]c3ccc(-c4cncc(NC(=O)[C@@H](N)c5ccccc5)c4)cc23)cc1`, the IC50 – broadly, the concentration at which inhibition is half-maximal – in assay [1] was determined as 64 nM. Regarding `O=C(Nc1n[nH]c2ccc(-c3cncc(NC[C@@H](CO)Cc4ccccc4)c3)cc12)c1ccccc1`, the 50% inhibitory concentration (IC50) came to 670 nM in assay [1] and 609 nM in assay [2].

As for `N[C@H](COc1cncc(-c2ccc3[nH]nc(NC(=O)c4ccccc4)c3c2)c1)Cc1ccccc1`, the IC50 in assay [1] stood at 335 nM; in assay [2], 97 nM. On to `NCCOc1cncc(-c2ccc3[nH]nc(NC(=O)c4ccccc4)c3c2)c1`, for which, in assay [1], the IC50 is 2000 nM. With `Cc1cncc(-c2ccc3[nH]nc(NC(=O)c4ccccc4)c3c2)c1`, the IC50 in assay [1] came to 2610 nM. As to `COc1cncc(-c2ccc3[nH]nc(NC(=O)c4ccccc4)c3c2)c1`, the IC50 in assay [1] was 5530 nM. The same measure, in the same setting: then `NCCNc1cncc(-c2ccc3[nH]nc(NC(=O)c4ccccc4)c3c2)c1`, with 1560 nM. Turning to `N[C@@H](COc1cncc(-c2ccc3[nH]nc(NC(=O)c4ccccc4)c3c2)c1)c1ccccc1`, the 50% inhibitory concentration (IC50) in assay [1] is 4920 nM. The inhibition – broadly, the share of the control response that was lost under treatment – in assay [3] was 48%. As for `O=C(Nc1n[nH]c2ccc(-c3cncc(NC[C@H](CO)Cc4ccccc4)c3)cc12)c1ccccc1`, the IC50 came out at 2640 nM in assay [1] and 2400 nM in assay [2]. `C=CC(=O)Nc1ccc(C(=O)Nc2n[nH]c3ccc(-c4cncc(N[C@H](CO)c5ccccc5)c4)cc23)cc1`: the IC50 was 19 nM in assay [1] and 756 nM in assay [2]. With `N[C@@H](C(=O)Nc1cncc(-c2ccc3[nH]nc(NC(=O)c4ccccc4)c3c2)c1)c1ccccc1`, the inhibition in assay [4] was 34%; in assay [3], 29%. Turning to `C=CC(=O)Nc1ccc(C(=O)Nc2n[nH]c3ccc(-c4cncc(NC(=O)[C@@H](N)Cc5ccccc5)c4)cc23)cc1`, the 50% inhibitory concentration (IC50) was 7 nM in assay [1] and 477 nM in assay [2]. For `NCC(=O)Nc1cncc(-c2ccc3[nH]nc(NC(=O)c4ccccc4)c3c2)c1`, the half-maximal inhibitory concentration (IC50) in assay [1] is 2490 nM. Turning to `N[C@H](Cc1ccccc1)C(=O)Nc1cncc(-c2ccc3[nH]nc(NC(=O)c4ccccc4)c3c2)c1`, the half-maximal inhibitory concentration (IC50) in assay [1] is 2070 nM; in assay [2], 550 nM. In the same order, the values of `O=C(Nc1n[nH]c2ccc(-c3cncc(NC[C@@H](CO)c4ccccc4)c3)cc12)c1ccccc1` are 710 nM and 813 nM. Take `N[C@@H](COc1cncc(-c2ccc3[nH]nc(NC(=O)c4ccccc4)c3c2)c1)Cc1ccccc1`: the IC50 in assay [1] was 2390 nM; in assay [2] it was 499 nM.

`C=CC(=O)Nc1ccc(C(=O)Nc2n[nH]c3ccc(-c4cncc(NC[C@H](O)c5ccccc5)c4)cc23)cc1`: the IC50 came to 6 nM in assay [1] and 918 nM in assay [2].

For the compound `CNC(=O)c1cncc(-c2ccc3[nH]nc(NC(=O)c4ccccc4)c3c2)c1`, the concentration for half-maximal inhibition (IC50) in assay [1] is 3780 nM. As for `N[C@H](C(=O)Nc1cncc(-c2ccc3[nH]nc(NC(=O)c4ccccc4)c3c2)c1)c1ccccc1`, in assay [1], the IC50 stood at 3140 nM. The inhibition in assay [3] is 34%. As for `O=C(Nc1n[nH]c2ccc(-c3cncc(NCCO)c3)cc12)c1ccccc1`, the half-inhibitory concentration (IC50) in assay [1] came to 1710 nM. In the case of `C=CC(=O)Nc1ccc(C(=O)Nc2n[nH]c3ccc(-c4cncc(N[C@H](CO)Cc5ccccc5)c4)cc23)cc1`, the half-inhibitory concentration (IC50) came to 5 nM in assay [1] and 595 nM in assay [2]. Turning to `O=C(Nc1n[nH]c2ccc(-c3cncc(NC[C@H](CO)c4ccccc4)c3)cc12)c1ccccc1`, the IC50 in assay [1] stood at 1730 nM; in assay [2], 577 nM. Take `N[C@H](COc1cncc(-c2ccc3[nH]nc(NC(=O)c4ccccc4)c3c2)c1)c1ccccc1`: the IC50 in assay [1] is 692 nM; in assay [2], 120 nM.

In the case of `NC[C@@H](CNc1cncc(-c2ccc3[nH]nc(NC(=O)c4ccccc4)c3c2)c1)c1ccccc1`, the IC50 worked out at 395 nM in assay [1] and 190 nM in assay [2]. In the case of `O=C(Nc1n[nH]c2ccc(-c3cncc(NC[C@@H](O)c4ccccc4)c3)cc12)c1ccccc1`, the IC50 came out at 440 nM in assay [1] and 802 nM in assay [2]. For `Nc1cncc(-c2ccc3[nH]nc(NC(=O)c4ccccc4)c3c2)c1`, the inhibition in assay [4] worked out at 45%.

For the compound `O=C(Nc1n[nH]c2ccc(-c3cccnc3)cc12)c1ccccc1`, the concentration for half-maximal inhibition (IC50) in assay [1] was 7550 nM. With `CN(C)C/C=C/C(=O)Nc1ccc(C(=O)Nc2cccc(Nc3ncc(Cl)c(-c4c[nH]c5ccccc45)n3)c2)cc1`, the IC50 in the assay with THP-1 amounted to 77000 nM. For the compound `O=C(Nc1n[nH]c2ccc(-c3cncc(O)c3)cc12)c1ccccc1`, the 50% inhibitory concentration (IC50) in assay [1] worked out at 7240 nM.

On to `O=C(Nc1n[nH]c2ccc(-c3cncc(NC[C@H](O)c4ccccc4)c3)cc12)c1ccccc1`, for which the 50% inhibitory concentration (IC50) was determined as 311 nM in assay [1] and 269 nM in assay [2].

For `N[C@@H](Cc1ccccc1)C(=O)Nc1cncc(-c2ccc3[nH]nc(NC(=O)c4ccccc4)c3c2)c1`, the values for the IC50 in assay [1] and in assay [2] were 1340 nM and 1050 nM, respectively.
